Measurements reported in the supplement of paper PMC9938120.

Tests used:
Experiment in all cases: drug sensitivity score (DSS3, normalised partial AUC of % inhibition dose-response) (DSS (score)); higher = more sensitive (stronger inhibition of viability); extreme values may be limits of the assay
Details in all cases: 72 h; library: FO5A; assay format: 2D, 384-well, CellTiter-Glo
[1] = test system: FMOC09 (patient-derived high-grade serous ovarian cancer cells)
Method in brief: (§1)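 Early-passage (under 10) patient-derived ovarian cancer cells were dispensed onto 384-well flat clear-bottom plates pre-plated with compounds at five concentrations spanning a 10,000-fold range, then incubated 72 h at 37 °C, 5% CO2. Viability was read with CellTiter-Glo, and the data were processed in Breeze. The drug sensitivity score is a partial area under the percent-inhibition dose-response curve divided by the log of the upper asymptote, with higher values meaning greater sensitivity.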

[2] = test system: FMOC02_3 (patient-derived low-grade serous ovarian cancer cells)
Method in brief: as §1

[3] = test system: FMOC06 (patient-derived mucinous ovarian cancer cells)
Method in brief: as §1

[4] = test system: FMOC24 (patient-derived high-grade serous ovarian cancer cells)
Method in brief: as §1

[5] = test system: FMOC25_2 (patient-derived low-grade serous ovarian cancer cells)
Method in brief: as §1

[6] = test system: FMOC03 (patient-derived mucinous ovarian cancer cells)
Method in brief: as §1

[7] = test system: FMOC22 (patient-derived mucinous ovarian cancer cells)
Method in brief: as §1

[8] = test system: FMOC02_2 (patient-derived low-grade serous ovarian cancer cells)
Method in brief: as §1

[9] = test system: FMOC14 (patient-derived high-grade serous ovarian cancer cells)
Method in brief: as §1

SMILES	drug sensitivity score [1]	drug sensitivity score [2]	drug sensitivity score [3]	drug sensitivity score [4]	drug sensitivity score [5]	drug sensitivity score [6]	drug sensitivity score [7]	drug sensitivity score [8]	drug sensitivity score [9]
Cc1ccc(NS(=O)(=O)c2cccc(C#N)c2)c2[nH]cc(C#N)c12 [E7820]	12.4	10.1	1.5	16.3	7.4	3.9	10.5	4.4	4.5
NC(=O)/C(=C/n1cnc(-c2cc(C(F)(F)F)cc(C(F)(F)F)c2)n1)c1cncnc1 [Eltanexor]	13.3	24.5	23	23.7	23	12.5	16.5	16.2	12.4
COc1cccc2c1C(=O)c1c(O)c3c(c(O)c1C2=O)C[C@@](O)(C(=O)CO)C[C@@H]3O[C@H]1C[C@H](N)[C@@H](O)[C@H](C)O1 [Epirubicin]	5.2	7	4.2	4.8	8.2	4.3	5.7	3.9	3.8
CCOc1ccccc1-n1c(C(C)N2CCN(C(=O)COc3ccc(Cl)cc3)CC2)nc2ccccc2c1=O (configuration not stated) [Erastin]	2.2	3.9	8	0.1	4.7	6.1	0.2	0.3	14.6
C=C1C[C@@H]2CC[C@@]34C[C@H]5O[C@H]6[C@@H](O3)[C@H]3O[C@H](CC[C@@H]3O[C@H]6[C@H]5O4)CC(=O)C[C@@H]3[C@@H](OC)[C@@H](C[C@H](O)CN)O[C@H]3C[C@H]3O[C@@H](CC[C@@H]1O2)C[C@@H](C)C3=C [Eribulin]	13.1	19.2	12.1	0.6	15.1	18	15.5	14.9	0
CC1(C)OCCn2c1nc1c(N3CCOCC3)nc(-c3cnc(N)nc3)nc12 [GDC-0084]	9.6	18.5	10.9	7.5	16.2	10.5	7.4	18.1	9.2
CC(C)C[C@H](NC(=O)CNC(=O)c1cc(Cl)ccc1Cl)B(O)O [Ixazomib]	6.8	6	12.1	16.8	14.5	15.1	16.6	14.3	15.3
CCNCCS(=O)(=O)NC[C@@]1(c2ccccc2)SC(NC(=O)C(C)(C)C)=NN1C(=O)C(C)(C)C [Litronesib]	6.8	11.6	0.7	0	13.5	7.9	9.2	4.9	0
CCCCCCCCCCCCCCCCOP(=O)([O-])OCC[N+](C)(C)C [Miltefosine]	8.4	6.9	9.1	9.8	5.1	5.6	10	5.5	8.7
CCS(=O)(=O)Nc1ccc(Oc2ccc(F)cc2F)c(-c2cn(C)c(=O)c3[nH]ccc23)c1 [Mivebresib]	10.9	30.3	16.6	17.6	16.4	13.9	11.7	20.3	11.7
CCNC(=O)C[C@@H]1N=C(c2ccc(Cl)cc2)c2cc(OC)ccc2-n2c(C)nnc21 [Molibresib]	2.1	10.2	3.6	5	5.6	3.4	3.1	6.9	1.7
COc1cc2c(cc1OC(C)C)[C@H](c1ccc(Cl)cc1)N(c1ccc(N(C)C[C@H]3CC[C@H](N4CCN(C)C(=O)C4)CC3)cc1)C(=O)C2 [NVP-CGM097]	5.9	18	5.5	8.6	13	5.9	6.9	12.2	6.3
CN[C@@H](C)C(=O)N[C@H](C(=O)N1CCC[C@H]1c1nc(C(=O)c2ccc(F)cc2)cs1)C1CCCCC1 [NVP-LCL161]	0	1.9	10.9	32.1	9.8	3.9	0.6	1.7	7.1
Cn1c(Nc2ccc(C(F)(F)F)cc2)nc2cc(Oc3ccnc(-c4ncc(C(F)(F)F)[nH]4)c3)ccc21 [NVP-RAF265]	0	12.7	0.8	2	6.6	2	1.6	8	1.6
CC(=O)c1cc2c(o1)C(=O)c1ccccc1C2=O [Napabucasin]	19.2	17.9	14.7	17.5	15	18.2	18.5	18.3	18.2
CC(=O)c1cnc2ccc(-c3cc(Cl)c(O)c(Cl)c3)nc2c1N[C@H]1CC[C@H](CN(C)C)CC1 [OTS167]	13.1	12.6	6.3	12.8	15.1	7.7	7.2	13.5	13
CC1(C)CC[C@]2(NC(=O)C(C)(F)F)CC[C@]3(C)[C@H](C(=O)C=C4[C@@]5(C)C=C(C#N)C(=O)C(C)(C)[C@@H]5CC[C@]43C)[C@@H]2C1 [Omaveloxolone]	14	10	15.8	9.7	13.9	18.7	15.9	9.3	11.6
Cn1nccc1Nc1nccc(-c2ccn([C@H](CO)c3ccc(Cl)c(F)c3)c(=O)c2)n1 [Ravoxertinib]	1.9	8.3	8.7	5.5	6.3	4.6	3.9	7.1	0
